From patent US20020155479A1, “Expression cloning method” (Whitehead Institute for Biomedical Research, priority 1999, published 2002)

Tests used:
[1] = system: GLUT4 at the plasma membrane of 3T3-L1 cells; assay: FACS-based assay of the proportion of GLUT4 reporter at the cell surface, 3T3-L1 cells; parameters: species or system murine
Experimental: (§1) Confluent cells were reseeded on the indicated day of differentiation to six well plates (Coming, Costar #3506) one day before use in experiments, and were starved in DMEM without fetal bovine serum for at least 3 hours before insulin stimulation. Insulin was generally used at 160 nM; occasionally it was used at 80 nM or 200 nM and no difference was noted between these concentrations in either 3T3-L1 or CHO cells. Insulin was added directly to the wells from a 100×stock. After treatment in the presence or absence of insulin for the times indicated in each figure, cells were quickly transferred to […] and washed with cold phosphate buffered saline (PBS) containing 0.9 mM Ca^++ and 0.5 mM Mg^++ (PBS++). All subsequent steps were carried out at 4° C., and staining of externalized myc epitope was done on adherent cells. Cells were incubated with a 1:200 dilution of anti-myc (9E10) ascites or using 25 μg/ml purified 9E10 in PBS++, 2% bovine serum albumin (BSA), 4% donkey serum for 1.5 hours. Cells were then washed twice in PBS++, for 5 minutes each time. They were then incubated 45 minutes in 12.5 to 25 μg/ml R-phycoerythrin conjugated donkey F(ab′)2 anti-mouse IgG secondary antibody, diluted in PBS++, 2% BSA, 4% donkey serum. Cells were rinsed twice in PBS++, then washed three times in PBS++ for 10 minutes each time, and were resuspended by gentle scraping in PBS++, 2% BSA or PBS++, 5% fetal bovine serum for flow cytometry. For experiments involving insulin removal, cells were chilled as above after insulin stimulation, then washed twice with 5 mM sodium acetate, 150 mM NaCl, pH 4.0 (Kao, A. W., et al., 1998, J Biol Chem 273:25450-7; Yang., J., et al., 1992, J Biol Chem 267:10393-9). Cells were rewarmed in 37° C. DMEM for the times indicated, restimulated or not with insulin, and then returned to 4° C. and chilled with cold PBS++ before staining as above.
(§2) Flow cytometry was done on FACScan or FACSCalibur cytometers (Becton-Dickinson). Appropriate compensation between the FL1 and FL2 channels was set using uninfected (GFP-negative) cells or cells stained with PE only (e.g. using a PE-conjugated anti-transferrin receptor antibody; Pharmingen). […] For each sample, data from ≧10,000 cells were collected. Median fluorescence intensities were used for quantification, since this measure of central tendency is least sensitive to outliers. For each sample, the PE and GFP fluorescence specifically attributable to the presence of the GLUT4 reporter were determined by subtracting background fluorescences, measured using control unstained cells and cells not expressing the reporter, respectively. These control cells were treated with the same conditions (e.g., type of serum and media, amino acid concentrations) used for the experimental cells. The ratio of fluorescence intensities plotted on the vertical axes of many figures is a relative, not absolute, measure of the proportion of GLUT4 at the cell surface. The scales are numbered arbitrarily and are not intended to permit comparison in absolute terms of data obtained in different experiments. In some of the kinetic studies (FIG. 26), the data were subjected to a simple smoothing operation. This consisted of calculating (0.25ra1—0.5rc+0.25rc+1), where r is the ratio of specific fluorescences for timepoint t. This calculated value was used for timepoints t=2 to ten−1, where n is the total number of timepoints. For the last time point t=n, (0.33rc1+0.67r1) was calculated. Basal values of r (r1) were unchanged.
To assay changes in the proportion of GLUT4 present at the plasma membrane, a cDNA encoding a GLUT4 reporter protein was constructed. This protein contains seven c-myc epitope tags in the first exofacial loop of GLUT4, and GFP fused in-frame at the carboxy terminus. […] An anti-myc monoclonal antibody, followed by a phencoerythrin (PE)-conjugated secondary antibody, was used to detect reporter protein present at the surface of living cells. […]

[2] = system: GLUT4 at the plasma membrane of CHO cells; assay: FACS-based assay of the proportion of GLUT4 reporter at the cell surface, CHO cells; parameters: species or system Chinese Hamster
Experimental: as §1, §2
To measure GLUT4 trafficking at the surface of CHO cells, CHO cells expressing the murine ecotropic retroviral receptor were infected with a retrovirus carrying the GLUT4 reporter, and FACS was utilized to isolate cells falling within a narrow range of GFP fluorescence intensities. Upon insulin stimulation of these cells, externalization of the GLUT4 reporter was again noted, as detected by flow cytometry. […]

[3] = system: GLUT4 at the cell surface of NIH 3T3 cells; assay: FACS-based assay of the proportion of GLUT4 reporter at the cell surface, NIH 3T3 cells; details: NIH 3T3 cells expressing the GLUT4 reporter
Experimental: Confluent cells were reseeded on the indicated day of differentiation to six well plates (Coming, Costar #3506) one day before use in experiments, and were starved in DMEM without fetal bovine serum for at least 3 hours before insulin stimulation. Insulin was generally used at 160 nM; occasionally it was used at 80 nM or 200 nM and no difference was noted between these concentrations in either 3T3-L1 or CHO cells. Insulin was added directly to the wells from a 100×stock. […]
Flow cytometry was done on FACScan or FACSCalibur cytometers (Becton-Dickinson). […] Median fluorescence intensities were used for quantification, since this measure of central tendency is least sensitive to outliers. For each sample, the PE and GFP fluorescence specifically attributable to the presence of the GLUT4 reporter were determined by subtracting background fluorescences, measured using control unstained cells and cells not expressing the reporter, respectively. […] The ratio of fluorescence intensities plotted on the vertical axes of many figures is a relative, not absolute, measure of the proportion of GLUT4 at the cell surface. […] This consisted of calculating (0.25ra1—0.5rc+0.25rc+1), where r is the ratio of specific fluorescences for timepoint t. This calculated value was used for timepoints t=2 to ten−1, where n is the total number of timepoints. For the last time point t=n, (0.33rc1+0.67r1) was calculated. […]

[4] = system: GLUT4 in the plasma membrane fraction of 3T3-L1 cells; assay: Subcellular fractionation and immunoblotting of GLUT4 in plasma membrane fraction, 3T3-L1 cells; type: cell-based, murine
Source text: Four 10 cm plates of 3T3-L1 adipocytes were used per condition to isolate low density microsomal and plasma membrane fractions for FIG. 17B. Eight and ten plates per condition were used to isolate low density microsomes for analysis by sucrose density gradient centrifugation (FIG. 17C) and in vesicle immunopurification experiments (FIG. 17D), respectively. Five plates of adipocytes and ten plates of preadipocytes were used per condition in experiments presented in FIGS. 19B and 20B, respectively. For experiments presented in FIGS. 17B and 17D cells were serum starved overnight, treated with the presence or absence of insulin (160 nM, 10 min.), then transferred to 4° C. and washed with cold PBS++. For the vesicle immunopurification (FIG. 17D) cells were starved overnight, then transferred to 4° C. and washed with cold PBS++ without insulin stimulation. For kinetic studies (FIGS. 19B), 480 nM insulin was used (added from a prewarmed 3×stock) in order to maximally and simultaneously stimulate all of the cells on each 10 cm dish. Cell were transferred to 4° C. and washed with cold PBS++ at the indicated times. In all cases, cells were next washed once with cold 250 mM sucrose, 10 mM Tris pH 7.4, 0.5 mM EDTA (Buffer A). Cells were resuspended by scraping in cold Buffer A with Complete protease inhibitors (Roche), then homogenized using 16 strokes (4 plates) or 25 strokes (8 plates) in a Dounce-type teflon tissue grinder (Kontes #22, VWR). All subsequent steps were performed at 4° C. […]
The supernatant from the initial centrifugation was recentrifuged at 19,000 rpm in an SS-34 rotor (43,000×g) for 30 minutes. […] Equal volumes of each fraction were analyzed by SDS-PAGE and immunoblotting, and the total protein content in each fraction was determined using the micro-BCA kit (Pierce). In experiments where LDM and PM fractions were analyzed directly (without sedimentation of the LDM), total protein content was first determined and then equal amounts of protein were analyzed by SDS-PAGE and immunoblotting.

[5] = system: GLUT4 reporter in AML12 hepatocyte cell line; assay: GLUT4 reporter translocation in AML12 hepatocyte cell line; type: cell-based; details: AML12 cells; data not shown
[6] = system: GLUT4 at the cell surface of adipocytes; details: <10% in the absence of insulin; cited from earlier work
[7] = 3T3-L1 preadipocytes and adipocytes
[8] = all days of 3T3-L1 differentiation, 80 nM insulin

CO[C@H]1C[C@@H]2CC[C@@H](C)[C@@](O)(O2)C(=O)C(=O)N2CCCC[C@H]2C(=O)O[C@H]([C@H](C)C[C@@H]2CC[C@@H](O)[C@H](OC)C2)CC(=O)[C@H](C)/C=C(\C)[C@@H](O)[C@@H](OC)C(=O)[C@H](C)C[C@H](C)/C=C/C=C/C=C/1C [rapamycin, reference compound]
decrease in amount of GLUT4 reporter per cell (GFP fluorescence) ([1]; 3T3-L1 adipocytes, after rapamycin treatment, data not shown): ≤ 10% | change in amount of GLUT4 reporter protein (GFP fluorescence) ([2]; CHO cells, after rapamycin treatment, data not shown): ≤ 10%

insulin
subsequent decrease to steady-state, of peak response ([1]; 3T3-L1 adipocytes, FIG. 19A): ~20% | peak response over basal ([1]; 3T3-L1 adipocytes, average of Day 8 and 10, FIG. 19A): 5.4 fold | time at which steady-state level of cell surface GLUT4 is reached [1, 7]: about 15 minute | time of peak plasma membrane GLUT4 after insulin addition [1, 7]: about 5 minute | increase in plasma membrane GLUT4 ([1]; 3T3-L1 preadipocytes and adipocytes, peak after insulin addition): about 5 fold | increase in cell-surface GLUT4 ([1]; 3T3-L1 preadipocytes, 5 minutes after insulin addition): fourfold | fall of the fraction of GLUT4 on the plasma membrane after the peak [1, 8]: 20% to 40 | time of greatest proportion of GLUT4 on the plasma membrane after insulin addition [1, 8]: four to five | time to steady-state after insulin addition [1, 8]: 15 to 20 min | increase in the fraction of GLUT4 present at the plasma membrane ([1]; confluent 3T3-L1 preadipocytes cultured in 10% calf serum or 10% fetal bovine serum, 5 minutes): four-fold | time at which steady-state level of cell surface GLUT4 is reached ([2]; CHO cells): about 15 minute | time of peak plasma membrane GLUT4 after insulin addition ([2]; CHO cells): about 5 minute | peak fraction of GLUT4 at the cell surface relative to unstimulated cells ([2]; CHO cells cultured in DMEM): 5.5 fold | time of peak GLUT4 externalization after insulin addition ([2]; CHO cells cultured in DMEM): four to five | time to steady-state after insulin addition ([2]; CHO cells cultured in DMEM): twenty | part of the increase eliminated in the subsequent decrease ([2]; CHO cells cultured in DMEM, several experiments): 50% to 60 | overshoot of the final, steady-state proportion of GLUT4 at the cell surface ([2]; CHO cells cultured in F12 medium): no overshoot | increase in plasma membrane GLUT4 ([2]; CHO cells, peak after insulin addition): about 5 fold | shift of the population upward along the PE (myc) axis ([2]; confluent CHO cells expressing the GLUT4 reporter, FIG. 17F): ~5 fold | increase in the proportion of GLUT4 at the cell surface [3]: twofold | increases in the plasma membrane fraction (insulin/basal) ([4]; 3T3-L1 adipocytes, native GLUT4 and reporter protein, insulin 160 nM, 10 min, densitometry of several experiments): 5- to 10 fold | time of peak response of GLUT4 reporter in the PM fraction after insulin addition ([4]; 3T3-L1 preadipocytes expressing the GLUT4 reporter): 8 min | time of peak GLUT4 in the PM fraction after insulin addition ([4]; endogenous GLUT4, uninfected 3T3-L1 adipocytes, 480 nM insulin): 7 min | insulin-stimulated translocation of the GLUT4 reporter [5]: minimal translocation | overshoot of the steady-state response [5]: no overshoot | proportion of GLUT4 at the cell surface in the presence of insulin [6]: 35-50%
